“And” between values parts separate entries of the source, which are not always exact repeats. Identical values can stand only once.
Molecular target: T1, Adenosine receptor A1 (Gallus gallus, UniProt P49892)
T1 sequence (P49892 whole entry): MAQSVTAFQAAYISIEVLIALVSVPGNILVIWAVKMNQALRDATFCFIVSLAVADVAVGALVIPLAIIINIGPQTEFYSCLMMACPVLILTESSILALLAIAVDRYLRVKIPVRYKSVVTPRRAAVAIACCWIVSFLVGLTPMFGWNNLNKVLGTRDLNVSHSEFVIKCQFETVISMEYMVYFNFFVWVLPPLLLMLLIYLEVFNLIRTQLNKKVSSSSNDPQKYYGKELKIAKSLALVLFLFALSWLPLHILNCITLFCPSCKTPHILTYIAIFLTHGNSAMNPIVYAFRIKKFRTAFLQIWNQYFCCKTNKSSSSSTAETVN

| Ki | SMILES |
| --- | --- |
| 2070 nM and 790 nM | CCn1c(=O)c2[nH]c(-c3ccccc3)nc2n(CC)c1=O [1,3-Diethyl-8-phenyl-3,7-dihydro-purine-2,6-dione] |
| 2.5 nM | OC[C@H]1O[C@@H](n2cnc3c(NC4CCCCC4)ncnc32)[C@H](O)[C@@H]1O [CHA] |

| SMILES | Ki |
| --- | --- |
| CCNC(=O)[C@H]1O[C@@H](n2cnc3c(N)ncnc32)[C@H](O)[C@@H]1O | 14.4 nM and 16.9 nM |
